Type in all cases: in vivo
One assay has as its system Zymoseptoria tritici. In words: Fungicidal activity: leaf blotch of wheat (SEPTTR), disease control on wheat seedlings. Particulars: LV activity at 121.5 g/H, wheat (variety Yuma). The procedure:
(§1) Technical grades of materials were dissolved in acetone, which were then mixed with nine volumes of water (H2O) containing 110 ppm Triton X-100. The fungicide solutions were applied onto wheat seedlings using an automated booth sprayer to run-off. All sprayed plants were allowed to air dry prior to further handling. All fungicides were evaluated using the aforementioned method for their activity vs. all target diseases, unless stated otherwise. Wheat leaf blotch and brown rust activity were also evaluated using track spray applications, in which case the fungicides were formulated as EC formulations, containing 0.1% Trycol 5941 in the spray solutions. Wheat plants (variety Yuma) were grown from seed in a greenhouse in 50% mineral soil/50% soil-less Metro mix until the first leaf was fully emerged, with 7-10 seedlings per pot. These plants were inoculated with an aqueous spore suspension of Zymoseptoria tritici either prior to or after fungicide treatments. After inoculation the plants were kept in 100% relative humidity (one day in a dark dew chamber followed by two to three days in a lighted dew chamber at 20° C.) to permit spores to germinate and infect the leaf. The plants were then transferred to a greenhouse set at 20° C. for disease to develop. When disease symptoms were fully expressed on the 1st leaves of untreated plants, infection levels were assessed on a scale of 0 to 100 percent disease severity. Percent disease control was calculated using the ratio of disease severity on treated plants relative to untreated plants.

For the next assay, the system named is Puccinia triticina. In words: Fungicidal activity: wheat brown rust (PUCCRT), disease control on wheat seedlings. The following applies: LV activity at 121.5 g/H, wheat (variety Yuma). The procedure: as §1, with “plants. Wheat plants (variety Yuma) were grown from seed in a greenhouse in 50% mineral soil/50% soil-less Metro mix until the first leaf was fully emerged, with 7-10 seedlings per pot. These plants were inoculated with an aqueous spore suspension of Puccinia triticina either prior to or after fungicide treatments. After inoculation the plants were kept in a dark dew room at 22° C. with 100% relative humidity overnight to permit spores to germinate and infect the leaf. The plants were then transferred to a greenhouse set at 24° C. for disease to develop. Fungicide formulation, application and disease assessment followed the procedures as described in the Example A. Results of the evaluations are shown below in Table 4.” for “plants.”

Another assay has as its system Phakopsora pachyrhizi. Kind of assay: Fungicidal activity: Asian soybean rust (PHAKPA), disease control on soybean seedlings. Particulars: soybean (variety Williams 82). The method, then:
Technical grades of materials were dissolved in acetone, which were then mixed with nine volumes of H2O containing 0.011% Tween 20. The fungicide solutions were applied onto soybean seedlings using an automated booth sprayer to run-off. All sprayed plants were allowed to air dry prior to further handling. Soybean plants (variety Williams 82) were grown in soil-less Metro mix, with one plant per pot. Two week old seedlings were used for testing. Plants were inoculated either 3 days prior to or 1 day after fungicide treatments. Plants were incubated for 24 h in a dark dew room at 22° C. and 100% relative humidity then transferred to a growth room at 23° C. for disease to develop. Disease severity was assessed on the sprayed leaves.

Where [1] appears, read: 24 h, 1 Day Protectant, read-out: SEPTTR 1DP disease control rating.
Setting [2] is: 72 h, 3 Day Curative, read-out: SEPTTR 3DC disease control rating.
[3] abbreviates: 24 h, 1 Day Protectant, read-out: PUCCRT 1DP disease control rating.
The mark [4] stands for this setting: 72 h, 3 Day Curative, read-out: PUCCRT 3DC disease control rating.
[5] abbreviates: 72 h, 3 Day Curative, read-out: PHAKPA 3DC disease control rating.
Setting [6] is: 24 h, 1 Day Protectant, read-out: PHAKPA 1DP disease control rating.

The source of these data is US10034477B2, “Pyrido-1,3-oxazine-2,4-dione compounds with fungicidal activity” (Dow AgroSciences LLC, priority 2016, dated 2018).

Read-outs that look alike come from different tables or passages of the source.

In the case of `COc1ccnc2c(=O)n([C@@H](C)C(=O)O[C@@H](C)C(c3ccc(F)cc3F)c3ccc(F)cc3F)c(=O)oc12` [Compound 2], the pest or weed control at 121.5 g/ha in the assay with Zymoseptoria tritici (setting [1]) was greater than 80%; in the assay with Zymoseptoria tritici (setting [2]), greater than 80%; with Puccinia triticina (setting [3]), greater than 80%; in the assay with Puccinia triticina (setting [4]), no more than 80%.
As to `COc1ccnc2c(=O)n([C@@H](C)C(=O)O[C@@H](C)[C@H](Oc3ccccc3)C(C)(C)C)c(=O)oc12` [Compound 4], the pest or weed control at 121.5 g/ha with Zymoseptoria tritici (setting [2]) is no more than 80%; in the assay with Puccinia triticina (setting [3]), greater than 80%; in the assay on Puccinia triticina (setting [4]), greater than 80%.
As to `CCC(CC)[C@@H](Oc1ccc(Cl)cc1)[C@H](C)OC(=O)[C@H](C)n1c(=O)oc2c(OC)ccnc2c1=O` [Compound 5], the pest or weed control at 121.5 g/ha is greater than 80% in the assay on Zymoseptoria tritici (setting [1]), no more than 80% in the assay on Zymoseptoria tritici (setting [2]), greater than 80% in the assay with Puccinia triticina (setting [3]) and no more than 80% in the assay on Puccinia triticina (setting [4]).
For the molecule `CC[C@H](OC(=O)[C@H](C)n1c(=O)oc2c(OC)ccnc2c1=O)[C@@H](C)Oc1ccccc1` [Compound 6], the pest or weed control at 121.5 g/ha in the assay with Zymoseptoria tritici (setting [2]) and in the assay on Puccinia triticina (setting [4]) was no more than 80% throughout.
With `COc1cc(F)ccc1[C@@H](c1ccc(F)c(C)c1)[C@H](C)OC(=O)[C@H](C)n1c(=O)oc2c(OC)ccnc2c1=O` [Compound 7], the pest or weed control at 121.5 g/ha in the assay with Zymoseptoria tritici (setting [1]), in the assay on Zymoseptoria tritici (setting [2]) and with Puccinia triticina (setting [3]) was greater than 80% throughout.
For `COc1ccc(C(c2ccc(OC)cc2OC)[C@H](C)OC(=O)[C@H](C)n2c(=O)oc3c(OC)ccnc3c2=O)c(OC)c1` [Compound 8], the pest or weed control at 121.5 g/ha with Zymoseptoria tritici (setting [1]) was greater than 80%; with Zymoseptoria tritici (setting [2]), greater than 80%; with Puccinia triticina (setting [3]), no more than 80%; in the assay with Puccinia triticina (setting [4]) it was no more than 80%.
`CCC(CC)[C@@H](Oc1cccc(Cl)c1)[C@H](C)OC(=O)[C@H](C)n1c(=O)oc2c(OC)ccnc2c1=O` [Compound 9]: the pest or weed control at 121.5 g/ha in the assay with Zymoseptoria tritici (setting [1]) is no more than 80%; in the assay with Zymoseptoria tritici (setting [2]), no more than 80%; in the assay with Puccinia triticina (setting [3]), greater than 80%; in the assay with Puccinia triticina (setting [4]), no more than 80%.
As to `CCC[C@@H](Oc1cccc(OC)c1)[C@H](C)OC(=O)[C@H](C)n1c(=O)oc2c(OC)ccnc2c1=O` [Compound 10], the pest or weed control at 121.5 g/ha in the assay on Zymoseptoria tritici (setting [2]), in the assay with Puccinia triticina (setting [3]) and with Puccinia triticina (setting [4]) was greater than 80% throughout.
As for `COc1ccnc2c(=O)n([C@@H](C)C(=O)O[C@@H](C)[C@H](c3ccc(F)cc3)c3ccc(F)cc3C)c(=O)oc12` [Compound 11], the pest or weed control at 121.5 g/ha is greater than 80% with Zymoseptoria tritici (setting [1]), greater than 80% with Zymoseptoria tritici (setting [2]) and no more than 80% in the assay on Puccinia triticina (setting [3]).
For `CCCCC[C@H](OC(=O)[C@H](C)n1c(=O)oc2c(OC)ccnc2c1=O)[C@@H](C)Oc1ccccc1` [Compound 13], the pest or weed control at 121.5 g/ha in the assay on Zymoseptoria tritici (setting [1]) and in the assay on Zymoseptoria tritici (setting [2]) was no more than 80% each time. The pest or weed control at 25 ppm in the assay on Phakopsora pachyrhizi (setting [5]) was no more than 80%.
Take `COc1ccnc2c(=O)n([C@@H](C)C(=O)O[C@@H](C)C(c3cccc(F)c3)c3cccc(F)c3)c(=O)oc12` [Compound 14]: the pest or weed control at 121.5 g/ha with Zymoseptoria tritici (setting [1]) was greater than 80%; in the assay with Zymoseptoria tritici (setting [2]), greater than 80%; with Puccinia triticina (setting [3]), no more than 80%; with Puccinia triticina (setting [4]), no more than 80%.
Consider `COc1ccnc2c(=O)n([C@@H](C)C(=O)O[C@@H](C)[C@H](Oc3ccccc3)c3ccc(F)cc3Cl)c(=O)oc12` [Compound 15], for which the pest or weed control at 121.5 g/ha in the assay with Zymoseptoria tritici (setting [1]) is greater than 80%; in the assay with Zymoseptoria tritici (setting [2]), greater than 80%; with Puccinia triticina (setting [3]) it was greater than 80%; in the assay on Puccinia triticina (setting [4]), no more than 80%.
For the molecule `CCC(CC)[C@@H](Oc1ccccc1Cl)[C@H](C)OC(=O)[C@H](C)n1c(=O)oc2c(OC)ccnc2c1=O` [Compound 16], the pest or weed control at 121.5 g/ha was no more than 80% with Zymoseptoria tritici (setting [1]), greater than 80% in the assay on Zymoseptoria tritici (setting [2]), greater than 80% with Puccinia triticina (setting [3]) and no more than 80% with Puccinia triticina (setting [4]).
On to `COc1ccnc2c(=O)n([C@@H](C)C(=O)O[C@@H](C)[C@H](c3ccccc3)c3ccc(C)cc3F)c(=O)oc12` [Compound 17], for which the pest or weed control at 121.5 g/ha in the assay on Zymoseptoria tritici (setting [1]), in the assay on Zymoseptoria tritici (setting [2]) and in the assay with Puccinia triticina (setting [3]) was greater than 80% each time.
In the case of `COc1ccc(C(c2ccc(OC)cc2)[C@H](C)OC(=O)[C@H](C)n2c(=O)oc3c(OC)ccnc3c2=O)cc1` [Compound 18], the pest or weed control at 121.5 g/ha was greater than 80% with Zymoseptoria tritici (setting [1]), greater than 80% in the assay on Zymoseptoria tritici (setting [2]), greater than 80% in the assay with Puccinia triticina (setting [3]) and no more than 80% in the assay on Puccinia triticina (setting [4]). The pest or weed control at 25 ppm with Phakopsora pachyrhizi (setting [6]) and with Phakopsora pachyrhizi (setting [5]) was no more than 80% throughout.
Take `COc1ccnc2c(=O)n([C@@H](C)C(=O)O[C@@H](C)[C@@H](c3ccc(F)cc3)c3ccc(F)cc3C)c(=O)oc12` [Compound 19]: the pest or weed control at 121.5 g/ha in the assay on Zymoseptoria tritici (setting [1]) was greater than 80%; in the assay on Zymoseptoria tritici (setting [2]), greater than 80%; with Puccinia triticina (setting [3]), greater than 80%; in the assay on Puccinia triticina (setting [4]), no more than 80%. Moreover, the pest or weed control at 25 ppm is greater than 80% with Phakopsora pachyrhizi (setting [6]) and no more than 80% in the assay with Phakopsora pachyrhizi (setting [5]).
As to `COc1cc(F)ccc1[C@@H](c1ccc(F)cc1)[C@H](C)OC(=O)[C@H](C)n1c(=O)oc2c(OC)ccnc2c1=O` [Compound 20], the pest or weed control at 121.5 g/ha is greater than 80% in the assay with Zymoseptoria tritici (setting [1]), greater than 80% in the assay on Zymoseptoria tritici (setting [2]), greater than 80% with Puccinia triticina (setting [3]) and no more than 80% in the assay on Puccinia triticina (setting [4]).
As to `COc1ccnc2c(=O)n([C@@H](C)C(=O)O[C@@H](C)[C@H](Oc3ccccc3Cl)c3ccccc3)c(=O)oc12` [Compound 21], the pest or weed control at 121.5 g/ha in the assay with Zymoseptoria tritici (setting [1]) is greater than 80%; in the assay with Zymoseptoria tritici (setting [2]), no more than 80%; in the assay on Puccinia triticina (setting [3]) it was greater than 80%. Further, the pest or weed control at 25 ppm in the assay with Phakopsora pachyrhizi (setting [5]) is no more than 80%.
With `COc1ccnc2c(=O)n([C@@H](C)C(=O)O[C@@H](C)[C@@H](c3ccccc3)c3ccc(F)c(C)c3)c(=O)oc12` [Compound 22], the pest or weed control at 121.5 g/ha with Zymoseptoria tritici (setting [1]) is greater than 80%; in the assay on Zymoseptoria tritici (setting [2]), greater than 80%; with Puccinia triticina (setting [3]), greater than 80%; with Puccinia triticina (setting [4]), no more than 80%. For the same molecule, the pest or weed control at 25 ppm in the assay with Phakopsora pachyrhizi (setting [6]) and in the assay on Phakopsora pachyrhizi (setting [5]) was no more than 80% throughout.
As for `COc1ccnc2c(=O)n([C@@H](C)C(=O)O[C@H](C)C(c3ccc(F)cc3)c3ccc(F)cc3)c(=O)oc12` [Compound 29], in the assay on Zymoseptoria tritici (setting [2]), the pest or weed control at 121.5 g/ha was no more than 80%. In addition, the pest or weed control at 25 ppm in the assay with Phakopsora pachyrhizi (setting [5]) was no more than 80%.
With `COc1ccnc2c(=O)n([C@H](C)C(=O)O[C@H](C)C(c3ccc(F)cc3)c3ccc(F)cc3)c(=O)oc12` [Compound 34], the pest or weed control at 25 ppm with Phakopsora pachyrhizi (setting [6]) and in the assay on Phakopsora pachyrhizi (setting [5]) was no more than 80% throughout.
As for `CCC[C@H](OC(=O)[C@H](C)n1c(=O)oc2c(OC)ccnc2c1=O)[C@@H](C)Oc1ccccc1` [Compound 35], in the assay on Zymoseptoria tritici (setting [2]), the pest or weed control at 121.5 g/ha is no more than 80%. The pest or weed control at 25 ppm in the assay on Phakopsora pachyrhizi (setting [5]) is no more than 80%.
